Measurements from patent US11007206B2, “Cyclic boronic acid ester derivatives and therapeutic uses thereof” (Melinta Subsidiary Corp., priority 2012, dated 2021).
Converted amounts (≈) assume the structure as drawn. Where two headings read alike, the source gives them in different places.

Tests used:
in vivo = experiment: in vivo; set-up: species or system Swiss-Webster mice; conditions: mouse, ip
Procedure: Example 2 provides a summary of two pharmacokinetic studies of Biapenem conducted in Swiss-webster mice. The pharmacokinetics of 100 mg/kg and 25 mg/kg of Biapenem via the intraperitoneal route was discussed below.
Biapenem power was purchased from Hisun Pharmaceuticals. 20 mg of Biapenem was dissolved in 0.1 M NaH2PO4 for a basic stock solution. For animal studies, this stock solution was further diluted in 0.9% saline to the appropriate concentration.
The specifications for animals used on this study were as follows: • Species: Mouse • Strain: CFW (Swiss) • Gender: Female • Source: Harlan Laboratories (Livermore, Calif.) • Number of Animals: 33 for each dose • Body Weight Range: 18-22 g at the start of the study
After acclimation, mice were administered a single intraperitoneal dose of biapenem at 25 or 100 mg/kg. […] Blood samples (one sample per animal) were collected by cardiac puncture in a heparin containing tube. The collected heparin tubes were centrifuged within 5 min of collection at 12000 g for 5 min to obtain plasma. The plasma samples were stored on −80° C. until analyzed.
Biapenem standard curves were prepared in 50% plasma-50% 1M MOPS buffer, pH=7.4 from 1 to 250 ug/mL. 20 uL of sample or standard was added into a 96-well deep well plate. Then 500 uL of 10% water-45% methanol-45% acetonitrile containing 2 ug/mL of meropenem was used as an internal standard. The plate was vortexed for 15 min. at 3,000 RPM. 50 uL of supernatant was removed and added 300 uL of water. 10 uL of samples were injected onto an HPLC-MS system for quantification.
The HPLC-MS conditions for the Biapenem plasma analysis are as follows: • Column: Supelco Discovery HS F5 or equivalent pentafluorophenyl column, 5 um, 50×2.1 mm. • Flow rate: 0.6 mL/min. • Mobile phase A: 0.1% formic acid in water. • Mobile phase B: 0.1% formic acid in acetonitrile. • Gradient: 5-70% B in 1.9 min. • Mass spectrometer: Positive ion mode with electrospray ionization. • MS/MS: Biapenem-Q1-m/e=350.8, Q3-m/e=110.1. • meropenem-Q1-m/e=384.1, Q3-m/e=141.1.
Serum concentrations were determined using HPLC. Serum concentrations were fit by using Non-compartmental model of WinNonlin Software (Pharsight. Version 5.3, Mountain View, Calif.).

[1] = system: carbapenem-resistant, KPC-producing K. pneumoniae; experiment: Mouse model of thigh infection, Biapenem +/- Compound I (Example 6); type: in vivo; conditions: IP 50 mpk Biapenem +/- 50 mpk Compound I every two hours for 24 hours
Procedure: Example 6 provides the in vivo efficacy study of the carbapenem Biapenem in combination with Compound I in mouse models of pulmonary and thigh infection due to the carbapenem-resistant, KPC-producing K. pneumoniae.
Four K. pneumoniae strains with Biapenem MICs ranging between 0.25-64 mg/L were used. Neutropenic mice were infected with ˜10^5 CFU/lung or ˜10^6 CFU/thigh. Intraperitoneal treatments with 50 mpk Biapenem+/−50 mpk Compound I were initiated 2 hours post-infection as a single dose or continued every two hours for 24 hours. Mice were sacrificed on designated time points and colony counts in tissue determined.

K. pneumoniae strains = experiment: Biapenem MICs of the K. pneumoniae strains used in the infection models (Example 6); type: cell-based; conditions: Klebsiella pneumoniae
[2] = Single-dose pharmacokinetics of Compound I, intraperitoneal administration to Swiss-Webster mice (Example 5); type: in vivo; conditions: plasma, Mouse; for CL/F: read-out: CL or CL/F (converted)
Procedure: Example 5 provides the single-dose pharmacokinetic studies of Compound I inpreclinical species, including intraperitoneal administration to Swiss-Webster mice and intravaneous administration to Sprague-Dawley rats, Beagle dogs, and Cynomologus monkeys.
Intravaneous doses of Compound I were administered as 30-minute infusions. The pharmacokinetics of Compound I were also studied with coadministration of the carbapenem, Biapenem. Compound I concentrations were determined using an LC-MS detection method.

[3] = female, CFW (Swiss-Webster), 25 mg/kg
[4] = female, CFW (Swiss-Webster), 100 mg/kg
[5] = female, CFW (Swiss-Webster), 100 mg/kg, Calc. Conc. (plasma concentration)

C[C@@H](O)[C@H]1C(=O)N2C(C(=O)[O-])=C(SC3Cn4cnc[n+]4C3)[C@H](C)[C@H]12 (stereo partly shown) [Biapenem] showed a Cl (in vivo; [3]) of 26.7 mL/min/kg, a Cmax (in vivo; [3]) of 31200 ng/mL and a half-life (in vivo; [3]) of 10.2 min. For the same compound, the Cl (in vivo; [4]) was 16 mL/min/kg, the Cmax (in vivo; [4]) was 286000 ng/mL and the half-life (in vivo; [4]) was 12.6 min. It also gave a concentration at 0.08 h (in vivo; [5]) of 1770 ng/mL, a concentration at 0.25 h (in vivo; [5]) of 68400 ng/mL and a concentration at 0.5 h (in vivo; [5]) of 120 ng/mL. For the same compound, the concentration at 0.75 h (in vivo; [5]) was 30500 ng/mL, the concentration at 3 h (in vivo; [5]) was 12.3 ng/mL and the concentration at 4 h (in vivo; [5]) was 10.2 ng/mL. For the same compound, the AUC (in vivo; 25 mg/kg) was 15.56 mg·h/kg, the “Calc. Conc. (plasma concentrations of Biapenem)” value (in vivo; 25 mg/kg) was “No Peak” and the AUC (in vivo; 100 mg/kg) was 103.55 mg·h/kg. The “Change in Log CFU/thigh ± SD @ 24 h” value ([1]; strain ATCC 43816, neutropenic mice) was −1.09 ± 0.30 Log CFU/thigh, the “Change in Log CFU/thigh ± SD @ 24 h” value ([1]; strain KP1004, neutropenic mice) was “+0.71 ± 0.10 Log CFU/thigh” and the “Change in Log CFU/thigh ± SD @ 24 h” value ([1]; strain KP1061, neutropenic mice) was “+1.67 ± 0.09 Log CFU/thigh”. For the same compound, the “Change in Log CFU/thigh ± SD @ 24 h” value ([1]; strain KP1074, neutropenic mice) was “+0.98 ± 0.46 Log CFU/thigh”, the MIC (K. pneumoniae strains; ATCC43816, K. pneumoniae strain ATCC 43816, read-out: Biapenem MIC Alone) was 0.25 µg/mL (≈ 0.713 µM) and the MIC (K. pneumoniae strains; ATCC43816, K. pneumoniae strain ATCC 43816, with Compound I 5 μg/mL, read-out: Biapenem MIC with Compound I (5 μg/mL)) was 0.25 µg/mL (≈ 0.713 µM). For the same compound, the MIC (K. pneumoniae strains; K. pneumoniae strain KP1004, read-out: Biapenem MIC Alone) was 16 µg/mL (≈ 45.7 µM), the MIC (K. pneumoniae strains; K. pneumoniae strain KP1004, with Compound I 5 μg/mL, read-out: Biapenem MIC with Compound I (5 μg/mL)) was ≤ 0.06 µg/mL and the MIC (K. pneumoniae strains; K. pneumoniae strain KP1061, read-out: Biapenem MIC Alone) was 32 µg/mL (≈ 91.3 µM). The MIC (K. pneumoniae strains; K. pneumoniae strain KP1061, with Compound I 5 μg/mL, read-out: Biapenem MIC with Compound I (5 μg/mL)) was ≤ 0.06 µg/mL, the MIC (K. pneumoniae strains; K. pneumoniae strain KP1074, read-out: Biapenem MIC Alone) was 64 µg/mL (≈ 183 µM) and the MIC (K. pneumoniae strains; K. pneumoniae strain KP1074, with Compound I 5 μg/mL, read-out: Biapenem MIC with Compound I (5 μg/mL)) was 0.25 µg/mL (≈ 0.713 µM). It also gave an MIC (K. pneumoniae strains; four K. pneumoniae strains used in the infection models, read-out: Biapenem MICs) of 0.25 to 64 µg/mL (≈ 0.713 to 183 µM).

In the case of O=C(O)C[C@@H]1CC[C@H](NC(=O)Cc2cccs2)B(O)O1 [Compound I], the AUC ([2]; 5 mg/kg IP) is reported as 3100 ng·h/mL, the Cmax ([2]; 5 mg/kg IP) is reported as 8260 ng/mL and the half-life ([2]; 5 mg/kg IP) is reported as 9.6 min. The CL/F ([2]; 5 mg/kg IP) was 26.8 mL/min/kg, the AUC ([2]; 15 mg/kg IP) was 8300 ng·h/mL and the Cmax ([2]; 15 mg/kg IP) was 19500 ng/mL. For the same compound, the half-life ([2]; 15 mg/kg IP) was 12 min, the CL/F ([2]; 15 mg/kg IP) was 30 mL/min/kg and the AUC ([2]; 50 mg/kg IP) was 31400 ng·h/mL. The Cmax ([2]; 50 mg/kg IP) was 67100 ng/mL, the half-life ([2]; 50 mg/kg IP) was 15 min and the CL/F ([2]; 50 mg/kg IP) was 26.7 mL/min/kg.
